Experimental data published in patent US20220395539A1, “TRADITIONAL CHINESE MEDICINE COMPOSITION FOR TREATING PSORIASIS, PREPARATION METHOD THEREFOR AND USE THEREOF” (priority 2019, published 2022).

Tested on: mice psoriasis-like skin lesion model induced by imiquimod
Assay: mice psoriasis-like skin lesion model induced by imiquimod
Type: in vivo, C57BL/6 mice
Parameters: Pathological score Epidermal cell keratinization / Pathological score Dermal thickness / Pathological score Total score: scale not given here
Conditions: methotrexate 1 mg/kg
Experimental: II. Pharmacodynamic Experiment of the Medicine Composition of the Present Application on Mice Psoriasis-Like Skin Lesion Model Induced by Imiquimod. Researching subjects: […] (2015000562136). The mice were fed with standard diet and the animal room was kept at the temperature of 23±2° C. and the humidity of 40% to 70%. […] The medium-dosage group of 9-ingredient macules-eliminating prescription: clinical equivalent dose. The low-dosage group of 9-ingredient macules-eliminating prescription: the dosage in the low-dosage group was ¼ of that in the high-dosage group. [table] Modeling method and treatment: […] Clinical symptoms: observe any clinical symptoms of each animal at the beginning and during the experiment. Any abnormal response should be recorded. […] PASI method: photos of the skin lesions were taken every day, and the erythema, scales and infiltration thickening degree at the skin lesions were scored, and the three scores were added up to obtain the total scores. […] End of experiment: after the experiment, the animals were sacrificed by CO2 deep anesthesia, and the corresponding tissues were collected. Statistics of data: the experimental data are expressed by Mean±SD, and the data between two groups are tested by T test, P<0.05 is considered as significant difference.

[1] = Yujinyinxie tablet 0.72 g/kg, i.g. Qd
[2] = Yujinyinxie tablet 0.72 g/kg, i.g. Qd 7 days

Q: How did the “effect on the weight compared with the model group” value (gavage 7 days, 9-ingredient 11.24, 5.62 and 2.81 g extract/kg) turn out when `CN(Cc1cnc2nc(N)nc(N)c2n1)c1ccc(C(=O)N[C@@H](CCC(=O)O)C(=O)O)cc1` [Methotrexate, methotrexate] was run?
A: reduced the weight

Q: What about the “BW Day l” value [1] of the same molecule?
A: 20.29 ± 0.68 g

Q: And the “Severity index Day 4 (total score of skin lesion, PASI method)” value [1]?
A: 1.65 ± 0.58

Q: What about the “Severity index Day 5 (total score of skin lesion, PASI method)” value [1] of the same molecule?
A: 2.20 ± 0.48

Q: And the “Severity index Day 6 (total score of skin lesion, PASI method)” value [1]?
A: 1.90 ± 0.39

Q: What about the “Severity index Day 7 (total score of skin lesion, PASI method)” value [1] of the same molecule?
A: 3.60 ± 0.63

Q: What about the “BW Day 8” value [2] of the same molecule?
A: 17.99 ± 2.71 g

Q: And the “Pathological score Dermal inflammatory cells infiltration degree” value [2]?
A: 1.10 ± 0.32,

Q: What about the “Pathological score Dermal thickness” value [2] of the same molecule?
A: 1.50 ± 0.53

Q: And the “Pathological score Epidermal cell keratinization” value [2]?
A: 1.60 ± 0.84

Q: And the “Pathological score Epidermal thickness” value [2]?
A: 1.60 ± 0.52,

Q: What about the “Pathological score Total score” value [2] of the same molecule?
A: 5.80 ± 1.14

Q: And the “Severity index Day 8 (total score of skin lesion, PASI method)” value [2]?
A: 3.05 ± 1.82
